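Compound exposure: 48 hours, 5 concentrations, 96-well plates. GI50 is the concentration that inhibits growth by half.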 Active and inactive are the calls of the source. No stated cut-off is given here; in the data, active = GI50 up to about 1.1 µM and inactive = higher.
Tests used:
Assay in all cases: inhibition of tumour cell growth, NCI panel, 48 h
[1] = test system: K562
[2] = test system: MDA-MB-231
[3] = test system: IGROV-1
[4] = test system: OVCAR-3
[5] = test system: PC-3
[6] = test system: LOX IMVI
[7] = test system: Malme-3M
[8] = test system: A549
[9] = test system: SF-268
[10] = test system: NCI/ADR-RES
[11] = test system: RXF 393
[12] = test system: COLO 205
[13] = test system: CAKI-1
[14] = test system: RPMI-8226
[15] = test system: NCI-H522
[16] = test system: SF-295
[17] = test system: NCI-H23
[18] = test system: HCT-116
[19] = test system: ACHN
[20] = test system: SN12C
[21] = test system: SNB-19
[22] = test system: BT-549
[23] = test system: DU-145
[24] = test system: SK-MEL-2
[25] = test system: M14
[26] = test system: MDA-MB-435
[27] = test system: HOP-62
[28] = test system: U-251
[29] = test system: SK-MEL-5
[30] = test system: HCT-15
[31] = test system: TK-10
[32] = test system: UO-31
[33] = test system: OVCAR-5
[34] = test system: UACC-62
[35] = test system: OVCAR-8
[36] = test system: UACC-257
[37] = test system: MDA-N
[38] = test system: SR
[39] = test system: SK-OV-3
[40] = test system: OVCAR-4
[41] = test system: KM12
[42] = test system: NCI-H226
[43] = test system: SF-539
[44] = test system: HCC 2998
[45] = test system: HT-29
[46] = test system: SNB-75
[47] = test system: SK-MEL-28
[48] = test system: CCRF-CEM
[49] = test system: 786-0
[50] = test system: EKVX
[51] = test system: A498
[52] = test system: MOLT-4
[53] = test system: SW-620
[54] = test system: MCF7
[55] = test system: NCI-H460

In the case of `CSC(=S)OC1C(CO[Si](C)(C)C(C)(C)C)OC2OC(C)(C)OC21` (stereo not given), the GI50 [1] is reported as 17.1 µM (inactive), the GI50 [2] is reported as 17.7 µM (inactive) and the GI50 [3] is reported as 18.3 µM (inactive). The GI50 [4] was 17 µM (inactive), the GI50 [5] was 15.8 µM (inactive) and the GI50 [6] was 15.7 µM (inactive). The GI50 [7] was 14.8 µM (inactive), the GI50 [8] was 25.5 µM (inactive) and the GI50 [9] was 15.2 µM (inactive). The GI50 [10] was 14.7 µM (inactive), the GI50 [11] was 20.6 µM (inactive) and the GI50 [12] was 19.2 µM (inactive). For the same molecule, the GI50 [13] was 31.6 µM (inactive), the GI50 [14] was 16.3 µM (inactive) and the GI50 [15] was 15.8 µM (inactive). The GI50 [16] was 17.4 µM (inactive), the GI50 [17] was 19.9 µM (inactive) and the GI50 [18] was 18.5 µM (inactive). The GI50 [19] was 17.1 µM (inactive), the GI50 [20] was 21.3 µM (inactive) and the GI50 [21] was 21 µM (inactive). The GI50 [22] was 30.8 µM (inactive), the GI50 [23] was 33.5 µM (inactive) and the GI50 [24] was 15 µM (inactive). For the same molecule, the GI50 [25] was 47 µM (inactive), the GI50 [26] was 33.2 µM (inactive) and the GI50 [27] was 18.4 µM (inactive). For the same molecule, the GI50 [28] was 17.5 µM (inactive), the GI50 [29] was 16.8 µM (inactive) and the GI50 [30] was 18.4 µM. For the same molecule, the GI50 [31] was 20.5 µM (inactive), the GI50 [32] was 17.7 µM (inactive) and the GI50 [33] was 21.3 µM (inactive). The GI50 [34] was 17 µM (inactive), the GI50 [35] was 27.3 µM (inactive) and the GI50 [36] was 17.1 µM (inactive). The GI50 [37] was 29.2 µM (inactive), the GI50 [38] was 13.7 µM (inactive) and the GI50 [39] was 20.2 µM (inactive). For the same molecule, the GI50 [40] was 49.4 µM (inactive), the GI50 [41] was 15.6 µM (inactive) and the GI50 [42] was 14.5 µM (inactive). For the same molecule, the GI50 [43] was 20.2 µM (inactive), the GI50 [44] was 21.3 µM (inactive) and the GI50 [45] was 11.4 µM (inactive). The GI50 [46] was > 100 µM (inactive), the GI50 [47] was 40.6 µM (inactive) and the GI50 [48] was 16.7 µM (inactive). The GI50 [49] was 19.5 µM (inactive), the GI50 [50] was 20.3 µM (inactive) and the GI50 [51] was 21.8 µM (inactive). For the same molecule, the GI50 [52] was 15.3 µM (inactive), the GI50 [53] was 17.3 µM (inactive) and the GI50 [54] was 16.3 µM (inactive). The GI50 [55] was 17 µM (inactive).

From ChEMBL document CHEMBL1201862, “PubChem BioAssay data set” (2004)
